Laboratory results published in ChEMBL document CHEMBL5500360, “Discovery of N-(4-((6-(3,5- Dimethoxyphenyl)-9H-purine derivatives as irreversible covalent FGFR inhibitors” (Eur J Med Chem, 2024).
The source made the active and inactive calls. No cut-off for these calls is given here.

Tests used:
MDA-MB-231 [1] = experiment: Antitumor activity against human MDA-MB-231 cells xenografted in female BALB/c athymic nude mouse assessed as tumor growth inhibition at 10 mg/kg, po administered once a day via gavage for 21 days relative to control; assay type: functional; conditions: MDA-MB-231, 504 h, time 21 day, read-out: TGI
MDA-MB-231 [2] = experiment: Inhibition of cell migration in human MDA-MB-231 cells at 2.5 uM incubated for 12 hrs by cell scratch assay; assay type: functional, cell-based
MDA-MB-231 [3] = experiment: Induction of apoptosis in human MDA-MB-231 cells assessed as apoptotic cells at 5 uM incubated for 24 hrs by Annexin V-FITC/PI staining based flow cytometric analysis relative to control; assay type: functional
MDA-MB-435 = experiment: cells; conditions: Homo sapiens, MDA-MB-435, 72 h
Description: Antiproliferative activity against human MDA-MB-435 cells assessed as inhibition of cell growth incubated for 72 hrs by MTT assay

KYSE-150 cell line = experiment: cells; conditions: Homo sapiens, KYSE-150, 72 h
Description: Antiproliferative activity against human KYSE-150 cells assessed as inhibition of cell growth incubated for 72 hrs by MTT assay

MDA-MB-231 [4] = experiment: Cell cycle arrest in human MDA-MB-231 cells assessed as accumulation of G2-M phase cells at 5 uM incubated for 24 hrs by […]PI staining based flow cytometric analysis (reference value: 16.88%); assay type: functional
MDA-MB-231 [5] = experiment: Induction of apoptosis in human MDA-MB-231 cells assessed as viable cells at 5 uM incubated for 24 hrs by Annexin V-FITC/PI staining based flow cytometric analysis (reference value: 99.645%); assay type: functional; conditions: read-out: Activity
HepG2 = experiment: cells; conditions: Homo sapiens, HepG2, 72 h
MDA-MB-231 [6] = experiment: Induction of ROS production in human MDA-MB-231 cells at 5 uM incubated for 12 hrs by flow cytometry based confocal microscopic analysis; assay type: functional, cell-based
MDA-MB-231 [7] = experiment: Induction of apoptosis in human MDA-MB-231 cells assessed as early apoptotic cells at 5 uM incubated for 24 hrs by Annexin V-FITC/PI staining based flow cytometric analysis (reference value: 0.131 %); assay type: functional
MDA-MB-231 [8] = experiment: Cell cycle arrest in human MDA-MB-231 cells assessed as accumulation of S phase cells at 5 uM incubated for 24 hrs by […]PI staining based flow cytometric analysis (reference value: 41.29%); assay type: functional
MDA-MB-231 [9] = experiment: Cell cycle arrest in human MDA-MB-231 cells assessed as accumulation of G0-G1 phase cells at 5 uM incubated for 24 hrs by […]PI staining based flow cytometric analysis (reference value: 41.83%); assay type: functional
in vitro = conditions: human, HUVEC cells
Description: Cytotoxicity against HUVEC cells assessed as inhibition of cell growth incubated for 72 hrs by MTT assay

MDA-MB-231 [10] = experiment: cells; conditions: Homo sapiens, MDA-MB-231, 72 h
MDA-MB-231 [11] = experiment: Induction of apoptosis in human MDA-MB-231 cells assessed as late apoptotic cells at 5 uM incubated for 24 hrs by Annexin V-FITC/PI staining based flow cytometric analysis (reference value: 0.161 %); assay type: functional
MDA-MB-231 [12] = experiment: Induction of apoptosis in human MDA-MB-231 cells assessed as necrotic cells at 5 uM incubated for 24 hrs by Annexin V-FITC/PI staining based flow cytometric analysis (reference value: 0.063 %); assay type: functional

IC50 (MDA-MB-435): 21.6 µM | IC50 (KYSE-150 cell line): 8.92 µM | IC50 (HepG2): 3.13 µM | IC50 at 72 h (in vitro): 38 µM | IC50 (MDA-MB-231 [10]): 7.19 µM
Compound: COc1cc(CCc2cc(NC(=O)c3ccc(N4C[C@@H](C)N[C@@H](C)C4)cc3)n[nH]2)cc(OC)c1 [FEXAGRATINIB]
inhibition in vivo at 10 mg/kg (MDA-MB-231 [1]): 52.6% | inhibition (MDA-MB-231 [2]): Active | Activity (MDA-MB-231 [3]): 37.3% | Activity (MDA-MB-231 [4]): 14.77% | viability at 5 µM (MDA-MB-231 [5]): 58% | Activity (MDA-MB-231 [6]): Active | Activity (MDA-MB-231 [7]): 29% | Activity (MDA-MB-231 [8]): 26.31% | Activity (MDA-MB-231 [9]): 58.92% | Activity (MDA-MB-231 [11]): 10.3% | Activity (MDA-MB-231 [12]): 2.72%
